Data: patent US20110207751A1, “HETEROCYCLIC COMPOUNDS AND USES AS ANTICANCER AGENTS” (priority 2010, published 2011)
pIC50: −log10 of the molar value. Structures can show the parent of a compound that is named as a salt.

Columns and labels:
[1] = system: A549 human non-small cell lung cancer xenograft; experiment: In vivo antitumor efficacy, A549 xenograft; parameters: species or system BALB/c immunodeficient nude mice
Excerpt: To evaluate the in vivo anticancer efficacy of COMPOUND O, A549 human non-small cell lung cancer xenograft models in immunodeficient nude mice was used. The cell line and mice were maintained in the Pharmacology Lab of ACEA Bio (Hangzhou) CO., Ltd. The BALB/c immunodeficient nude mice were purchased from Shanghai SLAC Laboratory Animal, certification number: SCXKA (Shanghai) 2007-0005. The mouse weight was between 21±1 g. Only female mice were used in this study. The numbers of animals tested were as follow: 7-8 for each dose group, 6 for positive control group and 7 for negative control group.
Test Control. For negative control, each mouse was administered orally with the solvent only having the same volume and same concentration as those used in COMPOUND O test, 120 mg/kg once every other day (qod) for 25 days. For positive control, an oral anticancer compound, Etoposide was administered orally at 30 mg/kg qod for 25 days.
Preparation an Administration of Test Compounds. COMPOUND O was dissolved in 25% phospholipid (S75) and 75% polyvinylpyrrolidone (PL-PVP) then further diluted to 8 mg/ml in 0.9% NaCl aqueous solution. Each mouse was administered orally with the compound solution. Different dosages of COMPOUND O (120 mg/kg qod and 160 mg/kg q2*2 (dosing for 2 consecutive days then off for 2 consecutive days) were used in the study.
Preparation of tumor cells for transplantation and determination of compound efficacy. To prepare the cancer cells for A549 human non-small cell lung cancer xenograft model, the log phase growing cell in the flask were trypsinized and cells were re-suspended in PBS (pH 7.2) at 2.5×10^7 cells/ml. The cell suspension (5×10^6 cells) was subcutaneously injected into the auxiliary region (right-side) of each mouse. After the inoculated cancer cells grew to a tumor of certain size (50-60 mm^3) in the nude mice (about 15 days post inoculation), the mice were randomized into different dosing groups and subjected to compound treatment. Between 3-4 weeks after the first dosing, mice were sacrificed and the transplanted tumors were removed from experimental mice. Each removed solid tumor was weighed; the tumor inhibition rate in each dosage group was calculated according to equation (1) in Example 1.
All used materials including animal food, animal cage, supporting materials and apparatus contacted by animals, were high-pressure sterilized. Nude mice were maintained in laminar flow shelves under SPF condition. After tumor transplantation, mouse weight and tumor size in each compound dosage group were dynamically monitored and plotted. The tumor size was determined by measuring the major axis (a) and minor axis (b) of the tumor, and tumor volume was calculated according to the formula (2) in Example 1.

A549 cells = experiment: Cell-cycle distribution by flow cytometry; assay type: cell-based, human; conditions: 37 nM, 24 hours, vs DMSO only
Description: In addition, we have also tested the effect of COMPOUND O on cell-cycle using flow Cytometry. Briefly, A549 cells were seeded at a density of 400,000 cells/well in 6-well tissue culture plates. Approximately 24 hours later the cells were treated with 37 nM COMPOUND O and allowed to further incubate for 24 hours. The cells were washed in PBS, trypsinized, counted and fixed in ice-cold 70% methanol and stored at 4° C. The cells were washed with PBS, stained with propidium iodide and kept on ice until flow Cytometry analysis.

[2] = system: H2347 cells (human non-small cell lung cancer cell line); experiment: Inhibition of cell proliferation, xCelligence cell index; assay type: cell-based; conditions: NCI-H2347, 72 hr post compound treatment, read-out: calculated IC50
Excerpt: The biological activity of compounds disclosed herein was monitored and profiled using the Real-Time Cell Electronic Sensing (RT-CES®) system from ACEA Biosciences, Inc. The RT-CES system utilizes cell-substrate impedance technology to monitor cellular behavior inside tissue culture wells in a microtiter plate format. The technology features in the integration of molecular and cell biology with microelectronics and is based on the electronic detection of biological assay process. […]
For measurement of cell-substrate or cell-electrode impedance using RT-CES technology, microelectrodes having appropriate geometries are fabricated onto the bottom surfaces of microtiter plate or similar device, facing into the wells. […] When there are changes to the biological status of the cells analogue electronic readout signals are measured automatically and in real time, and are converted to digital signals for processing and for analysis. In a RT-CES system, a cell index (arbitrary representation of change in impedance) is automatically derived and provided based on measured electrode impedance values. […]
To quantify cell status based on the measured cell-electrode impedance, a parameter termed Cell Index is derived. Cell Index is a quantitative measure of the status of the cells in an electrode-containing well. […]

Structure (SMILES)	TV inhibition rate % T/C ([1]; 120 mg/kg ig × 14 qod) [%]	Tumor volume (mm^3) End ([1]; 120 mg/kg ig × 14 qod) [mm^3]	Tumor volume (mm^3) Start ([1]; 120 mg/kg ig × 14 qod) [mm^3]	Tumor weight (g) x ± SD ([1]; 120 mg/kg ig × 14 qod) [g]	Tumor inhibition rate % ([1]; 120 mg/kg ig × 14 qod, by tumor weight) [%]	TV inhibition rate % T/C ([1]; 160 mg/kg ig × 11 q2*2) [%]	Tumor volume (mm^3) End ([1]; 160 mg/kg ig × 11 q2*2) [mm^3]	Tumor volume (mm^3) Start ([1]; 160 mg/kg ig × 11 q2*2) [mm^3]	Tumor weight (g) x ± SD ([1]; 160 mg/kg ig × 11 q2*2) [g]	Tumor inhibition rate % ([1]; 160 mg/kg ig × 11 q2*2, by tumor weight) [%]	cell population at G2/M phase (A549 cells)	pIC50 [2]	TV inhibition rate % T/C ([1]; 30 mg/kg ig × 13 qod) [%]	Tumor volume (mm^3) End ([1]; 30 mg/kg ig × 13 qod) [mm^3]	Tumor volume (mm^3) Start ([1]; 30 mg/kg ig × 13 qod) [mm^3]	Tumor weight (g) x ± SD ([1]; 30 mg/kg ig × 13 qod) [g]	Tumor inhibition rate % ([1]; 30 mg/kg ig × 13 qod, by tumor weight) [%]
CCc1ccc(Nc2nc(-c3c(C)nc4sccn34)cs2)cc1 [COMPOUND O, 2-(4-ethylphenyl)amino-4-(6-methylimidazo[2,1-b]thiazol-5-yl)-thiazole monohydrobromide]	37.5	244 ± 105	53.31 ± 24.5	0.25 ± 0.08	67.8	47.9	265 ± 135	45.25 ± 15.9	0.29 ± 0.11	62.5	increased significantly	8.75					
COc1cc([C@@H]2c3cc4c(cc3[C@@H](O[C@@H]3O[C@@H]5CO[C@@H](C)O[C@H]5[C@H](O)[C@H]3O)[C@H]3COC(=O)[C@H]23)OCO4)cc(OC)c1O [Etoposide, reference compound]													40.0	243 ± 121	57.42 ± 23.5	0.27 ± 0.15	59.9
CC[C@]1(O)C[C@H]2CN(CCc3c([nH]c4ccccc34)[C@@](C(=O)OC)(c3cc4c(cc3OC)N(C=O)[C@H]3[C@@](O)(C(=O)OC)[C@H](OC(C)=O)[C@]5(CC)C=CCN6CC[C@]43[C@@H]65)C2)C1 [vincristine]												8.30					
